Where a name gives a salt, the structure may show the parent alone. Read-outs that look alike come from different tables or passages of the source.
Experiments:
[1] = system: Human herpesvirus 5 (HCMV); test: Antiviral activity assay (0.1–1000 µM), IC50, plaque reduction; type: cell-based; details: Human betaherpesvirus 5, 20 PFU/well
Procedure: (§1) Antiviral properties of compounds 1e–1g, 1e[PF6], 8a–8d, and 9a were assessed against five viruses: Human herpesvirus 1 (HSV-1, VR-539), Human parainfluenza virus type 3 (HPIV-3, VR-93), Human adenovirus 5 (AdV5, VR-5), Human herpesvirus 5 (HCMV, VR-977), and Encephalomyocarditis virus (EMCV, VR-1479). Viruses were purchased from the American Type Culture Collection (ATCC, Manassas, VA, USA).
(§2) All tested compounds were dissolved in DMSO (dimethyl sulfoxide, Sigma-Aldrich, Darmstadt, Germany) and then suspended in Minimum Essential Medium (MEM; Sigma-Aldrich, Darmstadt, Germany) supplemented with 2% heat-inactivated fetal bovine serum (FBS; Sigma-Aldrich, Darmstadt, Germany), 2 mM L-glutamine (Sigma-Aldrich, Darmstadt, Germany), and 100 units/mL penicillin G with […] streptomycin (Sigma-Aldrich, Darmstadt, Germany).
(§3) Investigated cells were propagated in Minimum Essential Medium (MEM; Sigma-Aldrich, Darmstadt, Germany) supplemented with 10% heat-inactivated fetal bovine serum (FBS; Sigma-Aldrich, Darmstadt, Germany) and 100 units/mL penicillin G with […] streptomycin (Sigma-Aldrich, Darmstadt, Germany). After reaching 80–90% confluency, cells were harvested with trypsin (Life Technologies, Warsaw, Poland) and seeded into 96-well microplates at 2 × 10^5 cells/mL after overnight incubation of cells at 37 °C in a humidified atmosphere containing 5% CO2.
(§4) The culture medium was removed from confluent cells grown in 96-well microplates, and the cells were inoculated with virus solutions in MEM supplemented with 2% FBS and antibiotics (HSV-1 MOI 0.005, 1000 virions/mL; HPIV-3 MOI 0.01, 2000 virions/mL; AdV5 MOI 0.005, 1000 virions/mL; EMCV 0.005, 1000 virions/mL; HCMV 20 PFU/well (plaque-forming units per well). After a 1-h (HSV-1, HPIV-3, AdV5, and EMCV) or 2-h adsorption period (HCMV), residual viral particles were removed, and infected cells were further incubated with MEM supplemented with 2% FBS containing compound concentrations in the range from 0.1 to 1000 µM [38]. All experiments were carried out in triplicate. The cell monolayers were incubated with the investigated compounds at 37 °C in a humidified atmosphere containing 5% CO2 until a cytopathic effect (CPE) was visible. Viral infection was evaluated by the MTT assay (as described previously) or plaque reduction assay. HCMV plaques were counted under an inverted microscope, Olympus IX73 (Olympus, Tokyo, Japan). Antiviral activity was expressed as the concentration required to reduce the number of viral plaques to 50% of the control (virus-infected but untreated).

[2] = system: Encephalomyocarditis virus (EMCV); test: Antiviral activity assay (0.1–1000 µM), IC50; type: cell-based; details: Cardiovirus A, MOI 0.005, read-out: IC50 EMCV
Procedure: as §1, §2, §3, §4

[3] = system: Human adenovirus 5 (AdV5); test: Antiviral activity assay (0.1–1000 µM), IC50; type: cell-based; details: Human mastadenovirus C
Procedure: as §1, §2, §3, §4

[4] = system: Human herpesvirus 1 (HSV-1); test: Antiviral activity assay (0.1–1000 µM), IC50; type: cell-based; details: Human alphaherpesvirus 1; HSV-1, MOI 0.005
Procedure: as §1, §2, §3, §4

[5] = system: Human parainfluenza virus type 3 (HPIV-3); test: Antiviral activity assay (0.1–1000 µM), IC50; type: cell-based; details: Human respirovirus 3, HPIV-3, MOI 0.01; read-out: IC50 HPIV-3
Procedure: as §1, §2, §3, §4

[6] = Cytotoxicity screening at 10 µM (MTT); type: cell-based, Cercopithecus aethiops; details: Cercopithecus aethiops, Vero cells, read-out: Cell line (viability %) Vero
[7] = Cytotoxicity screening at 10 µM (MTT); type: cell-based, Macaca mulatta; details: Macaca mulatta, LLC-MK2 cells, read-out: Cell line (viability %) LLC-MK2
[8] = Cytotoxicity screening at 10 µM (MTT); type: cell-based, Mus musculus; details: Mus musculus, NCTC clone 929 cells, read-out: Cell line (viability %) NCTC clone 929
[9] = Cytotoxicity screening at 10 µM (MTT); type: cell-based, Human; details: human, MRC-5 cells, read-out: Cell line (viability %) MRC-5
[10] = Cytotoxicity screening at 10 µM (MTT); type: cell-based, Human; details: human, HeLa cells, read-out: Cell line (viability %) HeLa
[11] = system: Encephalomyocarditis virus (EMCV); test: Antiviral screening at 10 µM; type: cell-based; details: Cardiovirus A, EMCV-infected cells, read-out: Cell line (viability %) EMCV
Procedure: as §1, with “1a, 1c, 1a[PF6], 1c[PF6], 9b[PF6], 9c[PF6], 10a–10d, 2a,” for “1e–1g, 1e[PF6], 8a–8d,”, “2b” for “9a”
as §2
(§5) Vero, LLC-MK2, NCTC clone 929, MRC-5, and HeLa cells were propagated in Minimum Essential Medium (MEM; Sigma-Aldrich, Darmstadt, Germany) supplemented with 10% heat-inactivated fetal bovine serum (FBS; Sigma-Aldrich, Darmstadt, Germany) and 100 units/mL penicillin G with […] streptomycin (Sigma-Aldrich, Darmstadt, Germany). Upon reaching 80–90% confluency, cells were harvested with 0.25% trypsin in 1 mM EDTA (Life Technologies, Warsaw, Poland) and seeded onto 96-well microplates at 2 × 10^5 cells/mL. After overnight incubation of cells at 37 °C in a humidified atmosphere containing 5% CO2, the culture medium was removed, and cells were inoculated with the respective virus solution in MEM supplemented with 2% FBS and antibiotics (HSV-1 MOI 0.005, 1000 virions/mL; HPIV-3 MOI 0.01, 2000 virions/mL; AdV5 MOI 0.005, 1000 virions/mL, EMCV MOI 0.005, 1000 virions/mL, HCMV 20 PFU (plaque forming units) per well). After a 1-h (HSV-1, HPIV-3, AdV5, and EMCV) or 2-h adsorption period (HCMV), the residual virus was removed, and the infected cells were further incubated with a 100 μL freshly prepared solution of tested compounds diluted with a maintenance medium supplemented with 2% FBS to obtain compound concentrations of 10 µM. The final concentration of DMSO in the medium was 0.1%. All experiments were carried out in triplicate. The cells monolayers were incubated with the compounds at 37 °C in a humidified atmosphere containing 5% CO2 until the typical cytopathic effect (CPE) was visible. Viral infection was evaluated by the MTT assay or plaque reduction assay (HCMV). After incubation with drugs, the cells were treated with 3-(4,5-dimethylthiazol-2-yl)-2,5-diphenyltetrazolium bromide dye solution (MTT, Sigma-Aldrich, Darmstadt, Germany) (25 μL, 5 mg/mL) for 2 h and lysed with solvent solution (100 μL) containing: DMF (Sigma-Aldrich, Darmstadt, Germany) (45 mL), SDS (Sigma-Aldrich, Darmstadt, Germany) (13.5 g), and distilled water (55 mL). After overnight incubation at 37 °C, the optical density at 550 nm and a reference wavelength of 670 nm were measured on a microplate spectrophotometer, Varioskan Lux (Thermo Fisher Scientific, Waltham, MA, USA). The number of HCMV plaques was counted under an inverted microscope Olympus IX73 (Olympus, Tokyo, Japan).

[12] = system: Human adenovirus 5 (AdV5); test: Antiviral screening at 10 µM; type: cell-based; details: Human mastadenovirus C, AdV5-infected cells, read-out: Cell line (viability %) AdV5
Procedure: as §1, with “1a, 1c, 1a[PF6], 1c[PF6], 9b[PF6], 9c[PF6], 10a–10d, 2a,” for “1e–1g, 1e[PF6], 8a–8d,”, “2b” for “9a”
as §2, §5

[13] = system: Human herpesvirus 1 (HSV-1); test: Antiviral screening at 10 µM; type: cell-based; details: Human alphaherpesvirus 1, antiviral screening, HSV-1-infected cells, read-out: Cell line (viability %) HSV-1
Procedure: as §1, with “1a, 1c, 1a[PF6], 1c[PF6], 9b[PF6], 9c[PF6], 10a–10d, 2a,” for “1e–1g, 1e[PF6], 8a–8d,”, “2b” for “9a”
as §2, §5

[14] = system: Human parainfluenza virus type 3 (HPIV-3); test: Antiviral screening at 10 µM; type: cell-based; details: Human respirovirus 3, antiviral screening, HPIV-3-infected cells, read-out: Cell line (viability %) HPIV-3
Procedure: as §1, with “1a, 1c, 1a[PF6], 1c[PF6], 9b[PF6], 9c[PF6], 10a–10d, 2a,” for “1e–1g, 1e[PF6], 8a–8d,”, “2b” for “9a”
as §2, §5

[15] = system: Human herpesvirus 5 (HCMV); test: Antiviral screening at 10 µM, plaque reduction; type: cell-based; details: Human betaherpesvirus 5, antiviral screening, HCMV-infected cells, read-out: Cell line (viability %) HCMV
Procedure: as §1, with “1a, 1c, 1a[PF6], 1c[PF6], 9b[PF6], 9c[PF6], 10a–10d, 2a,” for “1e–1g, 1e[PF6], 8a–8d,”, “2b” for “9a”
as §2, §5

[16] = Cytotoxicity MTT assay (0.1–1000 µM), CC50; type: cell-based, Human; details: human, HeLa cells

Row | melting point | IC50 [1] | IC50 [2] | IC50 ([3]; AdV5, MOI 0.005, read-out: IC50 AdV5) | IC50 [4] | IC50 [5] | SMILES | viability at 48 h, 10 µM [6] | viability at 48 h, 10 µM [7] | viability at 48 h, 10 µM [8] | viability at 48 h, 10 µM [9] | viability at 48 h, 10 µM [10] | viability at 10 µM [11] | viability at 10 µM [12] | viability at 10 µM [13] | viability at 10 µM [14] | viability at 10 µM [15] | CC50 at 48 h ([16]; MTT, 48 h, read-out: CC50 Cancer Cell Lines HeLa) | CC50 at 48 h ([16]; Table S2, range 0.1-1000 µM, read-out: Cell line (CC50 M) HeLa) | IC50 ([3]; Table S4, range 0.1-1000 µM, AdV5, read-out: IC50 (M) AdV5)
1 | 107 to 110 °C |  |  |  |  |  | FC(F)(F)c1cccc(Cn2c[n+](OCc3ccccc3)c(-c3ccccc3)c2-c2ccccc2)c1.[Br-] |  |  |  |  |  |  |  |  |  |  |  |  | 
2 | 132 to 134 °C |  |  |  |  |  | COc1cccc(CO[n+]2cn(Cc3cccc(C(F)(F)F)c3)c(-c3ccccc3)c2-c2ccccc2)c1.[Br-] |  |  |  |  |  |  |  |  |  |  |  |  | 
3 | 156 to 158 °C |  |  |  |  |  | Cc1cc(C)cc(CO[n+]2cn(Cc3cccc(C(F)(F)F)c3)c(-c3ccccc3)c2-c2ccccc2)c1.[Br-] |  |  |  |  |  |  |  |  |  |  |  |  | 
4 | 110 to 112 °C |  |  |  |  |  | Cc1c(C)[n+](Cc2ccccc2)cn1Cc1cccc(F)c1 (as salt: phosphate) [1e[PF6]] [1-Benzyl-3-(3-fluorobenzyl)-4,5-dimethylimidazolium hexafluorophosphate] |  |  |  |  |  |  |  |  |  |  |  |  | 
5 |  | > 150 µM | > 148 µM | > 8e-08 M | > 56.3 µM | > 150 µM | Cc1c(C)[n+](Cc2ccccc2)cn1Cc1cccc(F)c1 [1e[PF6], 1-Benzyl-3-(3-fluorobenzyl)-4,5-dimethylimidazolium hexafluorophosphate] |  |  |  |  |  |  |  |  |  |  |  |  | 
6 |  |  |  |  |  |  | c1ccc(Cn2c[n+](Cc3ccccc3)c(-c3ccccc3)c2-c2ccccc2)cc1 [9b[PF6]] | 6.7% | 8% | 4.1% | 12.8% | 6.8% | 9.3% | 13.9% | 11.7% | 12% | 6.3% |  |  | 
7 |  |  |  |  |  |  | COc1cccc(Cn2c[n+](Cc3ccccc3)c(-c3ccccc3)c2-c2ccccc2)c1 [9c[PF6]] | 6.6% | 7.6% | 6.5% | 12.6% | 7.1% | 9.4% | 14.4% | 13.3% | 12.8% | 1.9% |  |  | 
8 |  |  |  |  |  |  | c1c[n+](C23CC4CC(CC(C4)C2)C3)cn1C12CC3CC(CC(C3)C1)C2 [Compound 2a, 1,3-diadamantyl imidazolium bromide, reference compound] | 7.9% | 7.8% | 8.9% | 73.7% | 23% | 7.1% | 50.2% | 13.9% | 8.3% | 9.7% |  |  | 
9 |  |  |  |  |  |  | c1c[n+](OC23CC4CC(CC(C4)C2)C3)cn1OC12CC3CC(CC(C3)C1)C2 [Compound 2b] | 15.2% | 7.8% | 6.6% | 12.7% | 7.5% | 9.6% | 17.1% | 14.1% | 8.7% | 2.8% |  |  | 
10 |  |  |  |  |  |  | COc1cccc(Cn2c(C)c(C)n(Cc3ccccc3)c2=S)c1 [Compound 10b] | 29.1% | 9.1% | 59% | 100% | 13.3% | 8.1% | 39.5% | 16.5% | 7.9% | 1.9% |  |  | 
11 |  |  |  |  |  |  | S=c1n(Cc2ccccc2)c(-c2ccccc2)c(-c2ccccc2)n1Cc1ccccc1 [Compound 10c] | 11.4% | 15.8% | 35.5% | 73.8% | 7.8% | 8.5% | 16% | 14.7% | 10.9% | 7.1% |  |  | 
12 |  |  |  |  |  |  | COc1cccc(Cn2c(-c3ccccc3)c(-c3ccccc3)n(Cc3ccccc3)c2=S)c1 [Compound 10d] | 95.8% | 53.6% | 91.5% | 96.8% | 74% | 8.5% | 68% | 14.6% | 10.6% | 1.9% | < 400 µM | 318 ± 47.5 µM | > 0.000318 M

From article PMC9181938, “Fluorinated Analogues of Lepidilines A and C: Synthesis and Screening of Their Anticancer and Antiviral Activity” (Molecules, 2022)
